Experimental data: PubChem BioAssay AID248 (DTP/NCI, 2004)
“And” between values parts separate entries of the source, which are not always exact repeats. Identical values can stand only once. Inconclusive results and toxic doses are left out. No stated cut-off is given here; in the data, active means T/C of 150% or more; inactive means T/C below 125%.

Tested on: L1210 leukemia ip in BDF1 mice, survival T/C
Test: NCI In Vivo Anticancer Drug Screen. Data for tumor model L1210 Leukemia (intraperitoneal) in B6D2F1 (BDF1) mice
Conditions: endpoint: mean survival time, higher = longer survival
Outline: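 In this screen, tumor-bearing mice given compound are compared to those given vehicle, and their survival values are reported as a treated-to-control quotient.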

[1] = dose: 100.0 mg/kg/injection, schedule: Q01DX001 (ip), vehicle: carboxymethylcellulose (CMC)
[2] = dose: 200.0 mg/kg/injection, schedule: Q01DX001 (ip), vehicle: carboxymethylcellulose (CMC)
[3] = dose: 400.0 mg/kg/injection, schedule: Q01DX001 (ip), vehicle: carboxymethylcellulose (CMC)
[4] = dose: 25.0 mg/kg/injection, schedule: Q04DX003 (ip), vehicle: saline
[5] = dose: 50.0 mg/kg/injection, schedule: Q04DX003 (ip), vehicle: saline
[6] = dose: 100.0 mg/kg/injection, schedule: Q04DX003 (ip), vehicle: saline
[7] = dose: 100.0 mg/kg/injection, schedule: Q01DX009 (ip), vehicle: Klucel (hydroxypropylcellulose) (HPC)
[8] = dose: 200.0 mg/kg/injection, schedule: Q01DX009 (ip), vehicle: Klucel (hydroxypropylcellulose) (HPC)

Measured: T/C

CCOC(=O)C1CC2(c3ccccc3)C(=O)C1(c1ccccc1)C(c1ccccc1)=C2c1ccccc1 (centres undefined)
inactive: dose: 50.0 mg/kg/injection, schedule: Q01DX001 (ip), vehicle: carboxymethylcellulose (CMC) 100 % of control | [1] 94 % of control | [2] 100 % of control | [3] 97 % of control

O=C(CNCc1ccccc1)Oc1c(Cl)c(Cl)c(Cl)c(Cl)c1Cl
inactive: dose: 100.0 mg/kg/injection, schedule: Q04DX003 (ip), vehicle: other 94 % of control | dose: 200.0 mg/kg/injection, schedule: Q04DX003 (ip), vehicle: other 93 % of control

COC(=O)c1cn[nH]c1N=Nc1ccc(N(CCCl)CCCl)cc1
inactive: dose: 75.0 mg/kg/injection, schedule: Q01DX001 (ip), vehicle: other 109 % of control | dose: 150.0 mg/kg/injection, schedule: Q01DX001 (ip), vehicle: other 124 % of control | dose: 300.0 mg/kg/injection, schedule: Q01DX001 (ip), vehicle: other 119 % of control

CCCCCCCCCCCCSCCOC(=O)C1C2CCC(O2)C1C(=O)O (centres undefined)
inactive: dose: 12.5 mg/kg/injection, schedule: Q04DX003 (ip), vehicle: Klucel (hydroxypropylcellulose) (HPC) 96 % of control | dose: 25.0 mg/kg/injection, schedule: Q04DX003 (ip), vehicle: Klucel (hydroxypropylcellulose) (HPC) 100 % of control | dose: 50.0 mg/kg/injection, schedule: Q04DX003 (ip), vehicle: Klucel (hydroxypropylcellulose) (HPC) 90 % of control

CC(=O)C(C)C(=O)c1cc(C)c(Br)s1 (centres undefined)
inactive: [1] 94 % of control | [2] 97 % of control | [3] 94 % of control

Cc1cccnc1N1CCNC1=O
inactive: [4] 92 % of control | [5] 103 % of control | [6] 96 % of control and 117 % of control

CC(C)=Nc1cccc(B(O)O)c1
inactive: dose: 100.0 mg/kg/injection, schedule: Q01DX001 (ip), vehicle: saline 98 % of control | dose: 200.0 mg/kg/injection, schedule: Q01DX001 (ip), vehicle: saline 88 % of control | dose: 400.0 mg/kg/injection, schedule: Q01DX001 (ip), vehicle: saline 95 % of control

NC(=O)CC(NC(=O)CCl)C(=O)O (centres undefined)
inactive: dose: 100.0 mg/kg/injection, schedule: Q01DX009 (ip), vehicle: saline with Tween-80 104 % of control | dose: 200.0 mg/kg/injection, schedule: Q01DX009 (ip), vehicle: saline with Tween-80 87 % of control | dose: 400.0 mg/kg/injection, schedule: Q01DX009 (ip), vehicle: saline with Tween-80 86 % of control

c1ccc2c(SCCC3CCCCC3)nnnc2c1
inactive: dose: 100.0 mg/kg/injection, schedule: Q04DX003 (ip), vehicle: acetone 89 % of control | dose: 200.0 mg/kg/injection, schedule: Q04DX003 (ip), vehicle: acetone 98 % of control | dose: 400.0 mg/kg/injection, schedule: Q04DX003 (ip), vehicle: acetone 93 % of control

CCOC(=O)c1c(OC)cc2n(c1=O)Cc1cc3ccccc3nc1-2
inactive: dose: 150.0 mg/kg/injection, schedule: Q01DX009 (ip), vehicle: saline with Tween-80 86 % of control | dose: 225.0 mg/kg/injection, schedule: Q01DX009 (ip), vehicle: saline with Tween-80 89 % of control | dose: 335.0 mg/kg/injection, schedule: Q01DX009 (ip), vehicle: saline with Tween-80 89 % of control

CN(Cc1ccccc1)C(=O)c1cccc(C(=O)N(C)Cc2ccccc2)c1
inactive: dose: 100.0 mg/kg/injection, schedule: Q01DX009 (ip), vehicle: other 97 % of control | dose: 200.0 mg/kg/injection, schedule: Q01DX009 (ip), vehicle: other 97 % of control | dose: 400.0 mg/kg/injection, schedule: Q01DX009 (ip), vehicle: other 94 % of control

C=CCN(CC=C)c1ccc(N(CC)CC)cc1
inactive: [7] 86 % of control | [6] 97 % of control | [8] 86 % of control | dose: 200.0 mg/kg/injection, schedule: Q04DX003 (ip), vehicle: saline 105 % of control | dose: 400.0 mg/kg/injection, schedule: Q04DX003 (ip), vehicle: saline 105 % of control

COC(=O)[C@@]12OC[C@]34[C@H]([C@@H](O)[C@@H]1O)[C@@]1(C)CC(=O)C(O)=C(C)[C@@H]1C[C@H]3OC(=O)[C@H](OC(=O)/C=C(\C)C(C)C)[C@@H]24
inactive: dose: 0.03 mg/kg/injection, schedule: Q01DX009 (ip), vehicle: other 111 % of control | dose: 0.03 mg/kg/injection, schedule: Q01DX009 (ip), vehicle: saline with Tween-80 111 % of control | dose: 0.03 mg/kg/injection, schedule: Q03HX024 (ip), vehicle: other 107 % of control | dose: 0.03 mg/kg/injection, schedule: Q03HX024 (ip), vehicle: saline with Tween-80 108 % of control | dose: 0.06 mg/kg/injection, schedule: Q01DX009 (ip), vehicle: other 111 % of control and 116 % of control | dose: 0.06 mg/kg/injection, schedule: Q01DX009 (ip), vehicle: saline with Tween-80 110 % of control and 120 % of control | dose: 0.06 mg/kg/injection, schedule: Q03HX024 (ip), vehicle: other 107 % of control | dose: 0.06 mg/kg/injection, schedule: Q03HX024 (ip), vehicle: saline with Tween-80 114 % of control | dose: 0.12 mg/kg/injection, schedule: Q01DX009 (ip), vehicle: other 118 % of control and 123 % of control | dose: 0.12 mg/kg/injection, schedule: Q01DX009 (ip), vehicle: saline with Tween-80 117 % of control | dose: 0.12 mg/kg/injection, schedule: Q03HX024 (ip), vehicle: other 121 % of control | dose: 0.12 mg/kg/injection, schedule: Q03HX024 (ip), vehicle: saline with Tween-80 116 % of control | dose: 0.25 mg/kg/injection, schedule: Q01DX009 (ip), vehicle: saline with Tween-80 121 % of control | dose: 0.25 mg/kg/injection, schedule: Q03HX024 (ip), vehicle: other 121 % of control | dose: 0.5 mg/kg/injection, schedule: Q01DX009 (ip), vehicle: other 117 % of control | dose: 0.5 mg/kg/injection, schedule: Q01DX009 (ip), vehicle: saline with Tween-80 123 % of control | dose: 0.6 mg/kg/injection, schedule: Q01DX009 (ip), vehicle: saline + alcohol 96 % of control | dose: 0.8 mg/kg/injection, schedule: Q01DX009 (ip), vehicle: saline + alcohol 112 % of control | dose: 1.0 mg/kg/injection, schedule: Q01DX009 (ip), vehicle: other 122 % of control | dose: 1.3 mg/kg/injection, schedule: Q01DX009 (ip), vehicle: saline + alcohol 114 % of control | dose: 2.0 mg/kg/injection, schedule: Q01DX009 (ip), vehicle: saline + alcohol 123 % of control | dose: 8.0 micrograms/kg/injection, schedule: Q01DX009 (ip), vehicle: saline + alcohol 91 % of control | dose: 16.0 micrograms/kg/injection, schedule: Q01DX009 (ip), vehicle: saline + alcohol 100 % of control | dose: 31.0 micrograms/kg/injection, schedule: Q01DX009 (ip), vehicle: saline + alcohol 109 % of control | dose: 62.0 micrograms/kg/injection, schedule: Q01DX009 (ip), vehicle: saline + alcohol 114 % of control | dose: 250.0 micrograms/kg/injection, schedule: Q01DX009 (ip), vehicle: saline + alcohol 115 % of control | dose: 500.0 micrograms/kg/injection, schedule: Q01DX009 (ip), vehicle: saline + alcohol 114 % of control | dose: 1000.0 micrograms/kg/injection, schedule: Q01DX009 (ip), vehicle: saline + alcohol 120 % of control | dose: 2000.0 micrograms/kg/injection, schedule: Q01DX009 (ip), vehicle: saline + alcohol 117 % of control

Cc1nc(NN)c(C(N)=O)nc1C
inactive: dose: 25.0 mg/kg/injection, schedule: Q01DX009 (ip), vehicle: saline 98 % of control | [4] 101 % of control | dose: 50.0 mg/kg/injection, schedule: Q01DX009 (ip), vehicle: saline 96 % of control | [5] 103 % of control | [6] 104 % of control

CCC1OCC(C(Cl)CCl)O1 (centres undefined)
inactive: dose: 100.0 mg/kg/injection, schedule: Q01DX009 (ip), vehicle: saline sonified 99 % of control

Cc1c(C(=O)NN)no[n+]1[O-]
inactive: dose: 25.0 mg/kg/injection, schedule: Q04DX002 (ip), vehicle: Klucel (hydroxypropylcellulose) (HPC) 96 % of control | dose: 50.0 mg/kg/injection, schedule: Q04DX002 (ip), vehicle: Klucel (hydroxypropylcellulose) (HPC) 93 % of control | dose: 100.0 mg/kg/injection, schedule: Q04DX002 (ip), vehicle: Klucel (hydroxypropylcellulose) (HPC) 93 % of control

O=C(Nc1cccc(Cl)c1Cl)Oc1ccc2ccccc2c1
inactive: [7] 100 % of control | [8] 105 % of control | dose: 400.0 mg/kg/injection, schedule: Q01DX009 (ip), vehicle: Klucel (hydroxypropylcellulose) (HPC) 103 % of control
